The text below walks through data of US20040170705A1, “Compositions and methods for non-insulin glucose uptake” (priority 2001, published 2004).

“Also recorded” adds a separate entry of the source.

One assay has as its system skeletal muscle cells. The conditions noted are these: cited from earlier work.
A further assay deals with L6 muscle cells. The experiment in a line: glucose uptake in L6 muscle cells (2-NBDG fluorescence). In kind it is cell-based. As to the method:
The permeate portion of GMM was tested for glucose uptake in L6 muscle cells. L6 cells were grown as monolayers in Dulbecco's modified Eagle's medium (DMEM) containing 1 mM glutamine, 1 mM pyruvate and 25 mM glucose. The medium was supplemented with 5% fetal calf serum (FCS). Experiments were undertaken in 48-well plates seeded from pre-confluent flasks with 50 000 cells per well. The cells were grown to confluence and the medium was changed to DMEM containing 0.5% FCS and 2.5 mM glucose (L6 Myo Medium) for at least 76 hrs to induce differentiation of L6 cells and formation of L6 myotubes. Myotubes were then incubated with test substances for 30 minutes—Protocol SMM, or in Dulbecco's PBS supplemented with 20 mM Hepes and 2 mM glucose without serum—Serum-free Medium (SFM) Protocol as described by Fryer et al. ((Activation of glucose transport by AMP-activated protein kinase via stimulation of Nitric oxide synthase, Diabetes, 49(12), 1978-85, 2000, Fryer LGD, et al).
Next, 30 uM of 2-NBDG was added for 2 minutes at 22C. Subsequently, cell culture medium was removed and cells were washed twice with cold DPBS. Then, cells were lysed in 0.5% SDS. Fluorescence was measured at 466/542 nm (excitation/emission) using 100 ul of cell lysate in 2 ml of water.
Cells were cultured, and treated in L6 Myo Medium (SSM)—SSM Protocol or in serum-free medium (SFM-DPBS containing 20 mM Hepes, 2 mM glucose)—SFM Protoci as described by Fryer et al. Glucose uptake was measured by adding 30 uM of 2-NBDG for 2′ at 22C. Experiments were performed in duplicates.
L-NMMA has been used in the experiment to verify whether GMM-induced glucose transport in L6 cells is or is not inhibited by NOS inhibitors, thus mimicking AICAR—induced mechanism of increased glucose transport. Fryer's experimental set up was adopted, consisting of pre-treatment of cells with inhibitor for 30 minutes in DPBS and after that with agonists like AICAR or in our case GMM for next 30 minutes at 37C before performing glucose uptake.

Take `NC(=O)c1ncn([C@@H]2O[C@H](COP(=O)(O)O)[C@@H](O)[C@H]2O)c1N` [AICAR, 5′-aminoimidazole 4-carboxamide 1-ribonucleotide]: the “effect on glucose uptake by pharmacological activation of AMPK” value in the assay on skeletal muscle cells (skeletal muscle) is “increase in glucose uptake”.

In the case of `NC(=O)c1[nH]cnc1N` [AICA], the “effect on glucose uptake” value in the assay on L6 muscle cells (L6 cells, 30 minutes treatment, uptake 2 minutes at 22C) is recorded as “stimulation”.

In the case of `CC(=O)O.CNC(=N)NCCC[C@H](N)C(=O)O` [L-NMMA, NG-methyl-L-arginine, acetate salt], the “effect on permeate/GMM-induced glucose uptake” value in the assay on L6 muscle cells (L-NMMA 300 uM pre-treatment 30 minutes in DPBS, acetate salt) is given as “inhibits; also recorded: blocks”. The “effect on AICA-stimulated glucose uptake” value with L6 muscle cells (pre-treatment with L-NMMA 30 minutes in DPBS, then AICA 30 minutes) was “inhibition”. Moreover, the “effect on the increase of glucose transport after activation of AMPK” value in the assay on skeletal muscle cells (NOS inhibitors, skeletal muscle cells) is “completely blocks”.

insulin: insulin used to treat L6 cells: the glucose uptake increase is 100-120% in the assay with L6 muscle cells (culture medium supplemented with 0.5% FCS (SSM), by average) and 40-50% with L6 muscle cells (serum-free medium (DPBS)).
